Biological target: T1, KOD DNA pol (exo-) (Thermococcus kodakarensis, UniProt P77933, D141A/E143A)
T1 construct: exonuclease-deficient mature polymerase (inteins absent); codon-optimized, pET24a, E. coli BL21(DE3); heparin and Superdex 75; no tag mentioned
Test: X-ray crystal structure of closed ternary complex
Type: binding
Details: with ddC-terminated primer/template DNA; Mg2+ (site A) and two Mn2+ (sites B, C); polymerase active site; pH 7.5

In the case of `Nc1ncnc2c1ncn2[C@H]1C[C@H](O)[C@@H](COP(=O)(O)OP(=O)(O)OP(=O)(O)O)O1` [dATP, 2’-deoxy-adenosine-5’-triphosphate], the “X-ray crystal structure of closed ternary complex” value is reported as “KOD DNA pol binds the incoming dATP in a pocket formed by the palm”.
